Test results reported in ChEMBL document CHEMBL5715945 (Cancer Biol Ther, 2010).
Calls of active or inactive are those of the source. The calls are words filed in the database; no cut-off is given here.

What was measured:
4T1 [1] = assay: Inhibition of cell adhesion to fibronectin in mouse 4T1 cells at 0.4 uM incubated for 4 hrs by […]; assay type: functional, cell-based
[2] = biological target: Vascular endothelial growth factor receptor 2 (Homo sapiens) (UniProt P35968); assay: Inhibition of KDR (unknown origin) at 0.1 uM relative to control; values are per cent of control
[3] = Toxicity in C57BL6 mouse implanted with mouse ID8 cells assessed as change in body weight at 0.5 mg/ml administered as solution in 5% sucrose measured after 30 days; assay type: cell-based; conditions: id8, 720 h, time 30 day
4T1 [4] = assay: Effect on p130Cas phosphorylation at Tyr410 residue in mouse 4T1 cultured as 3D spheroids at 0.1 uM incubated for 24 hrs by immunoblotting analysis; assay type: functional, cell-based
[5] = biological target: Aurora kinase A (Homo sapiens) (UniProt O14965); assay: Inhibition of Aurora-A (unknown origin) at 0.1 uM relative to control; values are per cent of control
[6] = biological target: Insulin-like growth factor 1 receptor (Homo sapiens) (UniProt P08069); assay: Inhibition of IGF-1R (unknown origin) at 0.1 uM relative to control; values are per cent of control
[7] = biological target: Dual specificity mitogen-activated protein kinase kinase 1 (Homo sapiens) (UniProt Q02750); assay: Inhibition of MEK1 (unknown origin) at 1 uM relative to control; values are per cent of control
[8] = biological target: Mast/stem cell growth factor receptor Kit (Homo sapiens) (UniProt P10721); assay: Inhibition of c-kit (unknown origin) at 0.1 uM relative to control; values are per cent of control
[9] = biological target: Protein kinase C alpha type (Homo sapiens) (UniProt P17252); assay: Inhibition of PKCa (unknown origin) at 0.1 uM relative to control; values are per cent of control
4T1 [10] = assay: Antitumor activity against mouse 4T1 cells harbouring mCherry red fluorescent protein implanted in BALB/c mouse assessed as fold reduction in tumor weight at 100 mg/kg, sc bid measured after 5 days; assay type: functional; conditions: time 5 day
4T1 [11] = assay: Inhibition of cell migration in mouse 4T1 cells assessed as wound closure at 1 uM incubated for 22 hrs by wound healing assay (reference value: 89%); assay type: functional; design: scale not given: the % may be the effect or the level left
[12] = biological target: Mitogen-activated protein kinase 1 (Homo sapiens) (UniProt P28482); assay: Inhibition of MAPK1 (unknown origin) at 0.1 uM relative to control; values are per cent of control
Homo sapiens = species on record: Homo sapiens; assay: Inhibition of p70S6K (unknown origin) at 1 uM relative to control; values are per cent of control
[13] = biological target: Casein kinase I isoform gamma-1 (Homo sapiens) (UniProt Q9HCP0); assay: Inhibition of CK1g1 (unknown origin) at 0.1 uM relative to control; values are per cent of control
4T1 [14] = assay: Inhibition of colony formation in mouse 4T1 cells assessed as reduction in cell number by measuring minimum inhibitory effect at 0.2 uM measured after 10 days by phase contrast microscopy analysis; assay type: functional, cell-based; conditions: time 10.0 day
4T1 [15] = assay: Inhibition of colony formation in mouse 4T1 cells assessed as reduction in cell size measured after 10 days by phase contrast microscopy analysis; assay type: functional, cell-based; conditions: dose 0.4-1 µM, time 10.0 day
[16] = biological target: Death-associated protein kinase 1 (Homo sapiens) (UniProt P53355); assay: Inhibition of DAPK1 (unknown origin) at 1 uM relative to control; values are per cent of control
[17] = biological target: Insulin-like growth factor 1 receptor (Homo sapiens) (UniProt P08069); assay: Inhibition of IGF-1R (unknown origin) at 1 uM relative to control; values are per cent of control
[18] = biological target: Death-associated protein kinase 1 (Homo sapiens) (UniProt P53355); assay: Inhibition of DAPK1 (unknown origin) at 0.1 uM relative to control; values are per cent of control

Sequence of Death-associated protein kinase 1 (Homo sapiens) (P53355 whole entry, looked up): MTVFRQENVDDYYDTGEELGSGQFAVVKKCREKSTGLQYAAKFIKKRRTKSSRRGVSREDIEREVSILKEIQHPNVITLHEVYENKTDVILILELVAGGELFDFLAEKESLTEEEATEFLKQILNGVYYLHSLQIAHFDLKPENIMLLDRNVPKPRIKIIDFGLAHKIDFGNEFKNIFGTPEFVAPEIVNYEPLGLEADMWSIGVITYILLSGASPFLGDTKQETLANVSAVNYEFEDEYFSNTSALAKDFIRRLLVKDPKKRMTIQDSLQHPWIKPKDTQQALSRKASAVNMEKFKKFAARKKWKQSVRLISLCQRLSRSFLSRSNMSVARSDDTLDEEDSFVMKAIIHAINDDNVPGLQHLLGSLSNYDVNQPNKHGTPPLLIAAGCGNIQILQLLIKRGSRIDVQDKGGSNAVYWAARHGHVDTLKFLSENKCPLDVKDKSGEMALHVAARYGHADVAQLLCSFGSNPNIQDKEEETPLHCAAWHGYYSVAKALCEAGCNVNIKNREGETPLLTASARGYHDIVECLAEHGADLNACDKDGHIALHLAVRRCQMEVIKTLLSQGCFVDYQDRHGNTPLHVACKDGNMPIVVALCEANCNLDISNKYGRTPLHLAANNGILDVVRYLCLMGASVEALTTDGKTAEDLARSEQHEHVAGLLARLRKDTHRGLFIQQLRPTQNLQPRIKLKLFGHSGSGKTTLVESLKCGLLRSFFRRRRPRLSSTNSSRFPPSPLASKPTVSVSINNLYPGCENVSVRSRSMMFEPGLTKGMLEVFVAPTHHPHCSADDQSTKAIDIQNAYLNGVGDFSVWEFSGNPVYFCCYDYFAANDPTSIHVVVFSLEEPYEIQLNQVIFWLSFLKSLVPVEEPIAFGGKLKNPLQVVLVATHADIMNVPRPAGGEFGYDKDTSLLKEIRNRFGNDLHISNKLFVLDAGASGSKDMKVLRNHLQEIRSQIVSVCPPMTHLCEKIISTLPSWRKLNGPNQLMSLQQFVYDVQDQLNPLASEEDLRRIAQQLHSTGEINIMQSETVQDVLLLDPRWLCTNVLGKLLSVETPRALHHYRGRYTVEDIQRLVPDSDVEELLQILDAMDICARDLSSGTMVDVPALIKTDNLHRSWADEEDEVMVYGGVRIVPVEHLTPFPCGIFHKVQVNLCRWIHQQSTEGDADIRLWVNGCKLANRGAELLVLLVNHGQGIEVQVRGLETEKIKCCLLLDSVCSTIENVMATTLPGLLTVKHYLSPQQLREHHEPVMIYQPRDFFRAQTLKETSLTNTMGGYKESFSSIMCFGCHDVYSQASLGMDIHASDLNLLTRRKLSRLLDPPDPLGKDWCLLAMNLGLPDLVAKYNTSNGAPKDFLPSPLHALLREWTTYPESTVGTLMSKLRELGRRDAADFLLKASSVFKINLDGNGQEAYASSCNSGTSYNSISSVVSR
Sequence of Insulin-like growth factor 1 receptor (Homo sapiens) (P08069 31-736 limits assumed): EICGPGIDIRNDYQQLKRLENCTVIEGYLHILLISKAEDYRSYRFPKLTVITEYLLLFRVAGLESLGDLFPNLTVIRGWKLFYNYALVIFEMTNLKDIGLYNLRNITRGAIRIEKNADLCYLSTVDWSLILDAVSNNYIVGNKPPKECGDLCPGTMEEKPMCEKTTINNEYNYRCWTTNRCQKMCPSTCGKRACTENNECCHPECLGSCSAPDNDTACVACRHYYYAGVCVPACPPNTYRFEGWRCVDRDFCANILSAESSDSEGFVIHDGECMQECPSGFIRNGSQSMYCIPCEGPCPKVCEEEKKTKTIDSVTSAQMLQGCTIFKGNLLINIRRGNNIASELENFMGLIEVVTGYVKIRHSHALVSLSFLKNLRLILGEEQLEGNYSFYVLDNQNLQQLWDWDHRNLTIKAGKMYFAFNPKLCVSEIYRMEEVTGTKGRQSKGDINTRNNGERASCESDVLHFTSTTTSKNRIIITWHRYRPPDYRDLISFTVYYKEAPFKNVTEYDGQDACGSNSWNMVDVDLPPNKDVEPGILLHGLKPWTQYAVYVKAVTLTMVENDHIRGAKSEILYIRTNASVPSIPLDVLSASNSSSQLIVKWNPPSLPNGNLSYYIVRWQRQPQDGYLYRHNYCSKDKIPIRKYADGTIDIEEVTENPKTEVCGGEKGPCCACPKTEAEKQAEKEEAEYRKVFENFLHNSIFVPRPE
Sequence of Insulin-like growth factor 1 receptor (Homo sapiens) (P08069 741-1367 limits assumed): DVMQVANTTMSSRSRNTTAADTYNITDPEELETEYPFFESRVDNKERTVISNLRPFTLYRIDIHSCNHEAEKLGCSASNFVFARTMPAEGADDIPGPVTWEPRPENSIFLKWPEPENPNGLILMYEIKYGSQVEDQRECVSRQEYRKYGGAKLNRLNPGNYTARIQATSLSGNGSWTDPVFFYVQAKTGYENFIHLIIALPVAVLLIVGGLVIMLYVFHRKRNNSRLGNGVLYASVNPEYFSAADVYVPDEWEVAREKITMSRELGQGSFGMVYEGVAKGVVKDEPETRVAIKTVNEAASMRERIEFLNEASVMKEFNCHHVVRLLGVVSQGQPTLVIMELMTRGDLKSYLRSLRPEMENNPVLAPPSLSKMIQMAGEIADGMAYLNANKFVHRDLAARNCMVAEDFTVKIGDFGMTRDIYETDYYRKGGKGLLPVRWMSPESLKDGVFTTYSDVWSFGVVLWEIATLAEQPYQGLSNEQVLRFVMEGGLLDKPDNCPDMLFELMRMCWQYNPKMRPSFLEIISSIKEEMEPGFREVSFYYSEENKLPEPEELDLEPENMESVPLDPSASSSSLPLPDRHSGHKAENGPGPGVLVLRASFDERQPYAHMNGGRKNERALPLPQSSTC
Sequence of Vascular endothelial growth factor receptor 2 (Homo sapiens) (P35968 whole entry): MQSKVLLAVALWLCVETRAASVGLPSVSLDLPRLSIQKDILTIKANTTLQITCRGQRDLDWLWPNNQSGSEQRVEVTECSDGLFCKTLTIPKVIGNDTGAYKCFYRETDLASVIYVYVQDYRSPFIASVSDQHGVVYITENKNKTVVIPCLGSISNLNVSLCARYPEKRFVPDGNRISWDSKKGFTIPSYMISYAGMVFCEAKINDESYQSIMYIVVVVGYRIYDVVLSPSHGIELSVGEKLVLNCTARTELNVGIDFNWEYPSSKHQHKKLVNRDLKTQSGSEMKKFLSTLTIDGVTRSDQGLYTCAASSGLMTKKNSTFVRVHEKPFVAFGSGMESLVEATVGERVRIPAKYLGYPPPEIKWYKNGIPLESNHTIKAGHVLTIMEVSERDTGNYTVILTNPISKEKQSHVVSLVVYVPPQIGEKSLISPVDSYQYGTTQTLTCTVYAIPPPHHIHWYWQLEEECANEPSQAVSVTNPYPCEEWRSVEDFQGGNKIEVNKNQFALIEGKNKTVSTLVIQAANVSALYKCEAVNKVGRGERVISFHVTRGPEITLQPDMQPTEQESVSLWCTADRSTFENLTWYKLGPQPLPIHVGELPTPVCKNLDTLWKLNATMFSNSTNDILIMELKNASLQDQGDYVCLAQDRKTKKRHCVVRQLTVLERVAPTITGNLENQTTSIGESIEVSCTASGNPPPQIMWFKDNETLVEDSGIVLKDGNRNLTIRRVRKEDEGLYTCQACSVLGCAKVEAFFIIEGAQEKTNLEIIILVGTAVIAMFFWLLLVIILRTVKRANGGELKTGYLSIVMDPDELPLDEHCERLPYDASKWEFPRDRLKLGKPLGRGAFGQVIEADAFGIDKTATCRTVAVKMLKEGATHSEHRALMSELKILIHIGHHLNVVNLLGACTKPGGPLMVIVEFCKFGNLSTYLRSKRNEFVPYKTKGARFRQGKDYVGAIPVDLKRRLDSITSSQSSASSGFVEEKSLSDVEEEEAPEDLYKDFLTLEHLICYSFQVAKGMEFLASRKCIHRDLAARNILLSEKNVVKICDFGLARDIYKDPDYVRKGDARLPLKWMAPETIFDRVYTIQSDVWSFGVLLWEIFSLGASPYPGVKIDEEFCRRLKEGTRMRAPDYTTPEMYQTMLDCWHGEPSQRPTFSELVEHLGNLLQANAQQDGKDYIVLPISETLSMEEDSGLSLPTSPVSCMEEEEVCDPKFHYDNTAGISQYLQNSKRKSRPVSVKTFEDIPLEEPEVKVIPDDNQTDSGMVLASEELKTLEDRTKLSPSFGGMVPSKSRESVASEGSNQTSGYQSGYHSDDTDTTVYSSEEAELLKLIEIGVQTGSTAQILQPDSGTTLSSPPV
Sequence of Mitogen-activated protein kinase 1 (Homo sapiens) (P28482 whole entry): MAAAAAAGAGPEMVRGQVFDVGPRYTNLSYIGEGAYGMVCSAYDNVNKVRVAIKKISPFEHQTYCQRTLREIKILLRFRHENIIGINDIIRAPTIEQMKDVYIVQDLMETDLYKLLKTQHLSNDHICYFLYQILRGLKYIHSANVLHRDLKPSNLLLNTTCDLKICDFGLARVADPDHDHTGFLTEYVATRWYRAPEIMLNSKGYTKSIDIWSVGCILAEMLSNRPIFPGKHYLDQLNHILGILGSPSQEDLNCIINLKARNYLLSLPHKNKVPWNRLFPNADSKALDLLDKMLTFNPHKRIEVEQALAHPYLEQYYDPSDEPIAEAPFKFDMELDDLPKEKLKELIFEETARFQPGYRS
Sequence of Dual specificity mitogen-activated protein kinase kinase 1 (Homo sapiens) (Q02750 whole entry): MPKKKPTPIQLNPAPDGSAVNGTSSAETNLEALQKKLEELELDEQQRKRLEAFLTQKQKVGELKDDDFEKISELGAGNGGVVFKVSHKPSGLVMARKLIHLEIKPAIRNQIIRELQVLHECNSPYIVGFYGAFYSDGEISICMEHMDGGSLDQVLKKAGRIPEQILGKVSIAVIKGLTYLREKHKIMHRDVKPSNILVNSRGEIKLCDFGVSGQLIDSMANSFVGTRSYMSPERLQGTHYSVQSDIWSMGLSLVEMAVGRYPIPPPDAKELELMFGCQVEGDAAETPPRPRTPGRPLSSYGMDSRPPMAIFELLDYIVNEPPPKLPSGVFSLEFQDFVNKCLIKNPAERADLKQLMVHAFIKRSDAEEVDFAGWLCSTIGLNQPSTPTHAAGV

residual activity [2]: 118% | residual activity [5]: 69% | residual activity [6]: 123% | residual activity [7]: 79% | residual activity [8]: 119% | residual activity [9]: 101% | residual activity [12]: 78% | residual activity (Homo sapiens): 97% | residual activity [13]: 111% | residual activity [17]: 110%
Compound: CNC(=O)c1ccccc1Nc1cc(Nc2ccc(N3CCOCC3)cc2OC)ncc1C(F)(F)F [VS-4718]
inhibition (4T1 [1]): inactive | Activity [3]: Non-Toxic | Activity (4T1 [4]): Active | fold change (FC) (4T1 [10]): 2 | Activity (4T1 [11]): 40% | inhibition (4T1 [14]): Active | inhibition (4T1 [15]): Dose-Dependent Effect | residual activity [16]: 97% | residual activity [18]: 104%
